Laboratory results from US10639298B2 (Biohaven Pharmaceutical Holding Company Ltd., priority 2015, dated 2020).
Read-outs that look alike come from different tables or passages of the source.

Tests used:
[1] = Rat pharmacokinetic studies of prodrug and released riluzole (IV or oral); format: in vivo, Sprague-Dawley rats; conditions: rat, plasma, fasted male Sprague Dawley rats; for clearance: read-out: Compound of the disclosure Cl (converted); for Vd: read-out: Compound of the disclosure Vss; for half-life: read-out: Compound of the disclosure t1/2 (converted)
Experimental: Rat Pharmacokinetic Studies of the Compounds of the Disclosure:
Blood samples were collected at pre-determined time points including a 0 h time point and usually between 7 and 8 additional time points not exceeding a 24 h period.
Plasma samples were extracted and analyzed using the methods described in Plasma Sample Extraction and Analysis. All data are expressed as ng/mL of the free base. Samples that were below the limit of quantification (0.5 ng/mL) were not used in the calculation of averages.
Pharmacokinetic parameters were calculated from the time course of the plasmaconcentrations. Pharmacokinetic parameters were determined with Phoenix Winnonlin (v6.3) software using a non-compartmental model. The maximum plasma concentration (Cmax) and time to the maximum plasma concentration (Tmax) of the compound of the disclosure were observed from the data. The area under the concentration-time curve (AUC) of the compound of the disclosure was calculated using the trapezoidal formula with calculation to the last quantifiable data point, and to infinity if applicable. Plasma half-life (t½) was calculated from 0.693/slope of the terminal elimination phase. Mean residence time, MRT, was calculated by dividing the area under the moment curve (AUMC) by the AUC. Any samples below the limit of quantitation (0.5 ng/mL) were treated as zero for pharmacokinetic data analysis.
Plasma Sample Extraction and Analysis:
Analytical stock solutions (1.00 mg/mL of the free compound of the disclosure) were prepared in DMSO. Standards were prepared in diluted matrix containing 1 part 10% formic acid and 9 parts Sprague-Dawley rat plasma containing sodium heparin as the anticoagulant (pre-diluted with 1 part of 0.5M citric acid and 9 parts whole blood). Working solutions were prepared in 50:50 acetonitrile:water. Working solutions were then added to plasma to make calibration standards to final concentrations of 1000, 500, 100, 50, 10, 5, 1, and 0.5 ng/mL. Standards contained both the test article and riluzole. Standards were treated identically to the study samples.
Plasma samples were extracted via acetonitrile precipitation on a Tomtec Quadra 96-Model 320 liquid handling system in a 96-well plate format.

[2] = PK in fasted male mice, prodrug and released riluzole (IV, PO); conditions: mouse, in vivo; for AUC(0-t): read-out: Prodrug AUClast (Mean)
[3] = tested on: Stage III and IV melanoma; conditions: 14 days of treatment, cited from earlier work
[4] = IV, prodrug dose 2.8 mg/Kg, read-out: Compound of the disclosure AUClast
[5] = PO 5 mg/kg, read-out: Prodrug AUClast (Mean)

AUC(0-t) [1, 4]	clearance ([1]; IV, prodrug dose 2.8 mg/Kg)	Vd ([1]; IV, prodrug dose 2.8 mg/Kg)	half-life ([1]; IV, prodrug dose 2.8 mg/Kg)	SMILES	other results
3620 ng·h/mL	9 mL/min/kg	3.55 L/kg	4.75 h	CCNCC(=O)N1CCC[C@@H]1C(=O)Nc1nc2ccc(OC(F)(F)F)cc2s1 [Example 52, (R)-1-N-ethylglycinyl-N-(6-(trifluoromethoxy)benzo [d]thiazol-2-yl) pyrrolidine-2-carboxamide]	–
2770 ng·h/mL	10.7 mL/min/kg	5.11 L/kg	6.2 h	CC(C)(CN)C(=O)N1CCC[C@H]1C(=O)Nc1nc2ccc(OC(F)(F)F)cc2s1 [Example 59, (S)-1-(3-amino-2,2-dimethylpropanoyl)-N-(6-(trifluoromethoxy)benzo[d]thiazol-2-yl)pyrrolidine-2-carboxamide]	–
663 ng·h/mL	71.3 mL/min/kg	4.14 L/kg	1.03 h	NCC(=O)NC1(C(=O)Nc2nc3ccc(OC(F)(F)F)cc3s2)CCC1 [Example 82, 1-(2-aminoacetamido)-N-(6-(trifluoromethoxy)benzo[d]thiazol-2-yl)cyclobutane-1-carboxamide]	–
–	–	–	–	CNCC(=O)NC1(C(=O)Nc2nc3ccc(OC(F)(F)F)cc3s2)CCC1 [Example 83, 1-(2-(methylamino)acetamido)-N-(6-(trifluoromethoxy)benzo[d]thiazol-2-yl)cyclobutane-1-carboxamide]	AUC(0-t) ([1]; IV, prodrug dose 1.8 mg/Kg, read-out: Compound of the disclosure AUClast): 1720 ng·h/mL; clearance ([1]; IV, prodrug dose 1.8 mg/Kg): 11.3 mL/min/kg; Vd ([1]; IV, prodrug dose 1.8 mg/Kg): 5.06 L/kg; half-life ([1]; IV, prodrug dose 1.8 mg/Kg): 5.56 h
4650 ng·h/mL	5.75 mL/min/kg	3.19 L/kg	6.51 h	CNCC(=O)NC(C)(C)C(=O)Nc1nc2ccc(OC(F)(F)F)cc2s1 [Example 111, 2-methyl-2-(2-(methylamino)acetamido)-N-(6-(trifluoromethoxy)benzo[d]thiazol-2-yl)propanamide]	–
2760 ng·h/mL	11.5 mL/min/kg	4.88 L/kg	5.45 h	CC(C)NCC(=O)NC(C)(C)C(=O)Nc1nc2ccc(OC(F)(F)F)cc2s1 [Example 113, 2-(2-(isopropylamino)acetamido)-2-methyl-N-(6-(trifluoromethoxy)benzo[d]thiazol-2-yl)propanamide]	–
2480 ng·h/mL	18.8 mL/min/kg	3.35 L/kg	10.4 h	CN(CC(=O)Nc1nc2ccc(OC(F)(F)F)cc2s1)C(=O)C(C)(C)CN [Example 118, 3-Amino-N,2,2-trimethyl-N-(2-oxo-2-((6-(trifluoromethoxy)benzo[d]thiazol-2-yl)amino)ethyl)propanamide]	–
1720 ng·h/mL	27.2 mL/min/kg	4.7 L/kg	9.3 h	CN(CC(=O)Nc1nc2ccc(OC(F)(F)F)cc2s1)C(=O)C1(CN)CC1 [Example 119, 1-(aminomethyl)-N-methyl-N-(2-oxo-2-((6-(trifluoromethoxy)benzo[d]thiazol-2-yl)amino)ethyl)cyclopropane-1-carboxamide]	–
2460 ng·h/mL	19 mL/min/kg	3.63 L/kg	8.66 h	CN(CC(=O)Nc1nc2ccc(OC(F)(F)F)cc2s1)C(=O)C1(CN)CCCC1 [Example 120, 1-(aminomethyl)-N-methyl-N-(2-oxo-2-((6-(trifluoromethoxy)benzo[d]thiazol-2-yl)amino)ethyl)cyclopentane-1-carboxamide]	–
1290 ng·h/mL	36.3 mL/min/kg	6.15 L/kg	4.83 h	CN(CC(=O)Nc1nc2ccc(OC(F)(F)F)cc2s1)C(=O)C1(CN)CCCCC1 [Example 121, 1-(aminomethyl)-N-methyl-N-(2-oxo-2-((6-(trifluoromethoxy)benzo[d]thiazol-2-yl)amino)ethyl)cyclohexane-1-carboxamide]	–
219 ng·h/mL	66.3 mL/min/kg	0.861 L/kg	0.28 h	CNCC(=O)N(C)CC(=O)Nc1nc2ccc(OC(F)(F)F)cc2s1 [Example 122, N-methyl-2-(methylamino)-N-(2-oxo-2-((6-(trifluoromethoxy)benzo[d]thiazol-2-yl)amino)ethyl)acetamide]	–
787 ng·h/mL	59 mL/min/kg	2.04 L/kg	0.68 h	CCNCC(=O)N(C)CC(=O)Nc1nc2ccc(OC(F)(F)F)cc2s1 [Example 123, 2-(ethylamino)-N-methyl-N-(2-oxo-2-((6-(trifluoromethoxy)benzo[d]thiazol-2-yl)amino)ethyl)acetamide]	–
580 ng·h/mL	81.2 mL/min/kg	2.67 L/kg	0.63 h	CC(C)NCC(=O)N(C)CC(=O)Nc1nc2ccc(OC(F)(F)F)cc2s1 [Example 124, 2-(isopropylamino)-N-methyl-N-(2-oxo-2-((6-(trifluoromethoxy)benzo[d]thiazol-2-yl)amino)ethyl)acetamide]	–
1440 ng·h/mL	22.3 mL/min/kg	9.66 L/kg	6.7 h	NCC1(C(=O)N2CCC[C@@H]2C(=O)Nc2nc3ccc(OC(F)(F)F)cc3s2)CCCCC1 [Example 173, (R)-1-(1-(aminomethyl)cyclohexane-1-carbonyl)-N-(6-(trifluoromethoxy)benzo[d]thiazol-2-yl)pyrrolidine-2-carboxamide]	–
232 ng·h/mL	220 mL/min/kg	2.47 L/kg	0.237 h	CN(CC(=O)Nc1nc2ccc(OC(F)(F)F)cc2s1)C(=O)CNC(=O)CN [Example 204, 2-Amino-N-{[methyl({[6-(trifluoromethoxy)-1,3-benzothiazol-2-yl]carbamoyl}methyl)carbamoyl]methyl}acetamide]	Cmax ([1]; PO 5 mg/kg): 1.84 ng/mL; Tmax ([1]; PO 5 mg/kg): 0.28 h; AUC(0-t) [1, 5]: 0.9 ng·h/mL; AUC(0-inf) ([2]; IV 1 mg/kg, read-out: Prodrug AUCinf (Mean)): 533 ng·h/mL; AUC(0-t) ([2]; IV 1 mg/kg): 532 ng·h/mL; clearance ([2]; IV 1 mg/kg, read-out: Prodrug CL (Mean) (converted)): 32.3 mL/min/kg; half-life ([2]; IV 1 mg/kg, read-out: Prodrug T1/2 (Mean) (converted)): 0.29 h; Vd ([2]; IV 1 mg/kg, read-out: Prodrug Vss (Mean)): 0.46 L/kg; Cmax ([2]; PO 5 mg/kg): 4.71 ng/mL; Tmax ([2]; PO 5 mg/kg): 0.33 h; AUC(0-t) ([2]; PO 5 mg/kg): 3.85 ng·h/mL
–	–	–	–	CN(CC(=O)Nc1nc2ccc(OC(F)(F)F)cc2s1)C(=O)CNC1CNC1 [Example 212, 2-[(Azetidin-3-yl)amino]-N-methyl-N-({[6-(trifluoromethoxy)-1,3-benzothiazol-2-yl]carbamoyl}methyl)acetamide]	AUC(0-t) ([1]; IV, prodrug dose 1.4 mg/Kg, read-out: Compound of the disclosure AUClast): 218 ng·h/mL; clearance ([1]; IV, prodrug dose 1.4 mg/Kg): 104 mL/min/kg; Vd ([1]; IV, prodrug dose 1.4 mg/Kg): 6.21 L/kg; half-life ([1]; IV, prodrug dose 1.4 mg/Kg): 2.43 h
1910 ng·h/mL	23 mL/min/kg	2.53 L/kg	3.98 h	CN(CC(=O)Nc1nc2ccc(OC(F)(F)F)cc2s1)C(=O)CNC1CCNCC1 [Example 216, N-Bethyl-2-[(piperidin-4-yl)amino]-N-({[6-(trifluoromethoxy)-1,3-benzothiazol-2-yl]carbamoyl}methyl)acetamide]	Cmax ([1]; PO 5 mg/kg): 2.96 ng/mL; Tmax ([1]; PO 5 mg/kg): 2.17 h; AUC(0-t) [1, 5]: 16.6 ng·h/mL
3240 ng·h/mL	14.2 mL/min/kg	1.1 L/kg	1.5 h	CN(CC(=O)Nc1nc2ccc(OC(F)(F)F)cc2s1)C(=O)CNC1COC1 [Example 234, N-Methyl-2-[(oxetan-3-yl)amino]-N-({[6-(trifluoromethoxy)-1,3-benzothiazol-2-yl]carbamoyl}methyl)acetamide]	–
–	–	–	–	Nc1nc2ccc(OC(F)(F)F)cc2s1 [riluzole]	Patients with clinical or radiologic evidence of tumor response ([3]; listed as Riluzole): four of 12; Patients with clinical or radiologic evidence of tumor response [3]: four of twelve
